Source: patent US20060281722A1, “Compounds and uses thereof” (priority 2005, published 2006)

System: Tumor Necrosis Factor alpha (TNFα)
Assay: Lipopolysaccharide (LPS)-induced serum TNFα in rats (oral dosing 2 h before LPS, serum ELISA)
Type: in vivo
Set-up: unit not given here
Details: LPS 0.01 mg/Kg intraperitoneal, male Lewis rats
Protocol: The purpose of this study was to examine the ability of compound 1 to suppress lipopolysaccharide (LPS)-induced Tumor Necrosis Factor alpha (TNFα) levels when administered to male Lewis rats.
Compound 1 was added directly to 100% ethanol. The suspension was vortexed vigorously until all of compound 1 was completely dissolved or fully suspended. The solution was made up to volume in 0.5% methylcellulose. The final concentration of ethanol was 10%.
At time minus 2 hours, rats were administered the appropriate amount of prednisolone and/or compound 1 via oral gavage in a dose volume of 0.25 mL. Untreated control and LPS Control animals received 0.25 mL of the vehicle only.
LPS was prepared at a 100X concentration by resuspension in Phosphate Buffered Saline (PBS). The LPS solution was vortexed vigorously to ensure complete suspension of the LPS. Immediately prior to injection, the LPS was serial diluted in PBS to a 1× working solution.
At time 0, animals were injected via the intraperitoneal route with 1.0 mL of the 1×LPS working solution (final LPS dose is 0.01 mg/Kg body weight) using a 25 gauge needle. Vehicle control animals received 1 mL of PBS.
Blood was expelled into a serum separator tube containing Clot Activator (Becton Dickinson, Franklin Lakes, N.J.). Samples were allowed to sit at room temperature for 30 min prior to spinning at 2000 rpm for 10 min in a bench top centrifuge at room temperature. Serum was transferred to an Eppendorf tube and immediately assayed for TNFα or stored at −80° C. until assayed.
Serum samples were assayed using the BioSource Rat TNFα ELISA kit according to the manufacturer's instructions.
Evaluation of the results included statistical analysis of differences in serum TNFα between treatment and control groups. Group means were compared using a one-way ANOVA. If the ANOVA was significant, p≦0.05, a multiple comparison test (Tukey-Kramer) was used to determine which groups were different.

Row | Compound | Serum TNFα ± Standard Error (0.3 mg/kg compound 1, oral gavage at minus 2 hours) | Serum TNFα ± Standard Error (1 mg/kg compound 1, oral gavage at minus 2 hours) | Serum TNFα ± Standard Error (3 mg/kg compound 1, oral gavage at minus 2 hours) | Serum TNFα ± Standard Error (0.3 mg/kg prednisolone, oral gavage at minus 2 hours) | Serum TNFα ± Standard Error (10 mg/kg prednisolone, oral gavage at minus 2 hours)
1 | Clc1ccc2c(c1)C(N1CCN(CCN3CCOCC3)CC1)=Nc1ccccc1O2 [compound1] | 13675.6 ± 7606.9 | 12769.1 ± 5231.2 | 12980.4 ± 6788.4 |  | 
2 | C[C@]12C=CC(=O)C=C1CC[C@@H]1[C@@H]2[C@@H](O)C[C@@]2(C)[C@H]1CC[C@]2(O)C(=O)CO [prednisolone, reference compound] |  |  |  | 11375.9 ± 5238.4 | 6239.3 ± 5020.4
